Experiments:
[1] = test system: Brd9-dependent Foxp3 binding sites; assay: ATAC-seq chromatin accessibility in Treg cells; format: cell-based, mouse; settings: sgBrd9 vs sgNT Treg cells; 61/1699 sites
Procedure: ATAC-seq was performed according to previously published protocol (Corces et al., Nat Methods 14:959-962, 2017). Briefly, Tregs transduced with either sgNT or sgBrd9 were subjected to Ficoll™ gradient purification to remove dead cells and ensure capture of cells that were 99% viable. 50,000 Treg cells were collected in duplicates per genotype and washed first with cold 1×PBS then with Resuspension buffer (RSB; 10 mM Tris-HCl pH 7.4, 10 mM NaCl, 3 mM MgCl2). Cells were lysed in 50 μL of RSB supplemented with 0.1% NP40, 0.01% Digitonin and 0.1% Tween 20 for 3 minutes on ice then diluted with 1 mL of RSB with 0.1% Tween 20. […]
ATAC-seq data analysis used the following tools and versions: cutadapt (v2.4), samtools (v1.9), Picard (v1.7.1), BWA (v0.7.12), macs2 (v2.1.2), and HOMER (v4.11). Paired end 42 bp reads were trimmed using cutadapt to remove Nextera™ adapter sequences then aligned to the reference mouse genome mm10 using BWA. The following were filtered out using Picard and samtools: duplicate reads, mitochondrial reads, low quality reads (Q<20), and improperly paired or unpaired reads. Quality was assessed by calculating Fraction of Reads In Peaks ([…]) which were >40% for all samples. TSS enrichment was determined using mm10 Refseq TSSs. […]

Foxp3 target genes = assay: RNA-seq and gene set enrichment analysis in Treg cells; format: cell-based, mouse
Excerpt: For large scale Treg culture, Tregs were first expanded in Rosa-Cas9/Foxp3^Thy1.1 mice by injecting IL-2:IL-2 antibody immune complex according protocol described in Webster et. al (J Exp Med 206, 751-760, 2009). Spleen and lymph node Treg cells were labeled with PE-conjugated Thy1.1 antibody and isolated by magnetic selection using anti-PE microbeads (Mitenyl #130-048-801). All isolated Treg cells were activated by plate bound anti-CD3 and anti-CD28 antibodies and cultured with X-VIVO® 20 media (LONZA #04-448Q) supplemented by 1× Pen/Strep, 1× Sodium pyruvate, 1× HEPES, 1× GlutaMax™, 55 μM beta-mercaptoethanol in the presence of IL-2 at 500 units/mL. For experiments with Brd9 degradation, Treg cells were treated at day 0 with 2.5 μM dBRD9 (Tocris #6606) and cultured for four days for RNA- and ChIP-seq and 0.16-10 μM treated at day 0 and cultured dBRD9 for four days for Foxp3 MFI, cell viability and cell proliferation assays. Live cells were enriched by Ficoll-Paque® 1.084 (GE Health 17-5446-02) for RNA-seq and ChIP-seq.
RNA from 1-3×10^6 cells was extracted and purified with TRIzol™ reagent (Thermo Fisher) according to manufacturer's instructions. RNA-seq libraries were prepared using Illumina® TruSeq® Stranded mRNA kit following manufacturer's instructions with 5 μg of input RNA.
Single-end 50 bp reads were aligned to the mouse genome mm10 using STAR alignment tool (V2.5) (Dobin et al., Bioinformatics 29:15-21, 2013). RNA expression was quantified as raw integer counts using analyzeRepeats.pl in HOMER (Heinz et al., Mol Cell 38:576-589, 2010) using the following parameters: -strand both -count exons -condenseGenes -noadj. To identify differentially expressed genes, getDiffExpression.pl in HOMER was used, which uses the DESeq2R package to calculate the biological variation within replicates. Cut-offs were set at log 2 FC=0.585 and FDR at 0.05 (Benjamin-Hochberg). Principal Component Analysis (PCA) was performed with the mean of transcript per million (TPM) values using Cluster 3.0 with the following filter parameters: at least one observation with absolute value equal or greater than two and gene vector of four. TPM values were log transformed then centered on the mean.
GSEA software (Mootha et al., Nat Genet 34:267-273, 2003; Subramanian et al., PNAS 102:15545-15550, 2005) was used to perform the analyses with the following parameters: number of permutations=1000; enrichment statistic=weighted; and metric for ranking of genes=difference of classes (Input RNA-seq data was log-transformed). For GSEA analysis, input RNA-seq data contained the normalized log-transformed reads of the 1,325 differentially expressed genes (DEGs) in sgFoxp3/sgNT Treg cells. The compiled gene list included GSEA Gene Ontology, Immunological Signature, Curated Gene, and the up and down DEGs in sgBrd9/sgNT Treg cells.
For gene expression analysis in FIG. 42F, Foxp3 ChIP-seq tags were quantified at the union of sites bound by Foxp3 in sgNT and sgBrd9 using the annotatePeaks.pl command in HOMER with size-given and each site was annotated to a gene by mapping to the nearest TSS. Sites were ranked from least to largest Foxp3 ChIP-seq Log2FC in sgBrd9 vs sgNT and divided into quartiles. Gene expression for the genes in the top and bottom quartiles (Brd9-dependent and -independent, respectively) was then plotted using RNA-seq data from Treg cells transduced with sgBrd9, sgSmarcd1, or sgPbrm1 compared to sgNT. […]

sgBrd9: sgRNA targeting Brd9, ATTAACCGGTTTCTCCCGGG (SEQ ID NO: 12) (expressed or natural sequence)
Brd9-dependent Foxp3 binding sites with significant reduction in chromatin accessibility [1]: 3.5% | enrichment of increased/decreased genes among sgFoxp3 regulated genes (GSEA) (Foxp3 target genes; sgBrd9/sgNT vs sgFoxp3/sgNT Treg cells): significantly enriched among genes that increase upon sgFoxp3 targeting | gene expression of Brd9-dependent vs Brd9-independent Foxp3 target genes (Foxp3 target genes; sgRNA transduced Treg cells vs sgNT): significantly more affected

Source: US20240150755A1, “MODULATING REGULATORY T CELL FUNCTION IN AUTOIMMUNE DISEASE AND CANCER” (Salk Institute for Biological Studies, priority 2021, published 2024)
